Laboratory results from ChEMBL document CHEMBL1152546, “N-[2-chloro-9H-purin-6-yl]-N-cyclopropylglycylamino acids and derivatives: synthesis, evaluation as a class of novel analgesics, and 3D QSAR analysis” (2009).

Assays:
Mus musculus [1] = assay: Analgesic activity in ICR mouse assessed as pain threshold variation at 20 umol/kg, ip administered as single dose measured after 90 mins by tail flick test relative to control; assay type: functional
Mus musculus [2] = assay: Analgesic activity in ICR mouse assessed as pain threshold variation at 20 umol/kg, ip administered as single dose measured after 120 mins by tail flick test relative to control; assay type: functional
Mus musculus [3] = assay: Analgesic activity in ICR mouse assessed as pain threshold variation at 20 umol/kg, ip administered as single dose measured after 180 mins by tail flick test relative to control; assay type: functional
Mus musculus [4] = assay: Analgesic activity in ICR mouse assessed as pain threshold variation at 20 umol/kg, ip administered as single dose measured after 60 mins by tail flick test relative to control; assay type: functional
Mus musculus [5] = assay: Analgesic activity in ICR mouse assessed as pain threshold variation at 20 umol/kg, ip administered as single dose measured after 30 mins by tail flick test relative to control; assay type: functional
Mus musculus [6] = assay: Analgesic activity in ICR mouse assessed as pain threshold variation at 20 umol/kg, ip administered as single dose measured after 150 mins by tail flick test relative to control; assay type: functional
Mus musculus [7] = assay: Analgesic activity in ICR mouse assessed as pain threshold variation at 12.5 umol/kg, po administered as single dose measured after 30 mins by tail flick test relative to control; assay type: functional
Mus musculus [8] = assay: Analgesic activity in ICR mouse assessed as pain threshold variation at 25 umol/kg, po administered as single dose measured after 180 mins by tail flick test relative to control; assay type: functional
Mus musculus [9] = assay: Analgesic activity in ICR mouse assessed as pain threshold variation at 6.25 umol/kg, po administered as single dose measured after 120 mins by tail flick test relative to control; assay type: functional
Mus musculus [10] = assay: Analgesic activity in ICR mouse assessed as pain threshold variation at 6.25 umol/kg, po administered as single dose measured after 60 mins by tail flick test relative to control; assay type: functional
Mus musculus [11] = assay: Analgesic activity in ICR mouse assessed as pain threshold variation at 6.25 umol/kg, po administered as single dose measured after 150 mins by tail flick test relative to control; assay type: functional
Mus musculus [12] = assay: Analgesic activity in ICR mouse assessed as pain threshold variation at 25 umol/kg, po administered as single dose measured after 30 mins by tail flick test relative to control; assay type: functional
Mus musculus [13] = assay: Analgesic activity in ICR mouse assessed as pain threshold variation at 25 umol/kg, po administered as single dose measured after 120 mins by tail flick test relative to control; assay type: functional
Mus musculus [14] = assay: Analgesic activity in ICR mouse assessed as pain threshold variation at 25 umol/kg, po administered as single dose measured after 150 mins by tail flick test relative to control; assay type: functional
Mus musculus [15] = assay: Analgesic activity in ICR mouse assessed as pain threshold variation at 12.5 umol/kg, po administered as single dose measured after 150 mins by tail flick test relative to control; assay type: functional
Mus musculus [16] = assay: Analgesic activity in ICR mouse assessed as pain threshold variation at 6.25 umol/kg, po administered as single dose measured after 30 mins by tail flick test relative to control; assay type: functional
Mus musculus [17] = assay: Analgesic activity in ICR mouse assessed as pain threshold variation at 12.5 umol/kg, po administered as single dose measured after 60 mins by tail flick test relative to control; assay type: functional
Mus musculus [18] = assay: Analgesic activity in ICR mouse assessed as pain threshold variation at 12.5 umol/kg, po administered as single dose measured after 90 mins by tail flick test relative to control; assay type: functional
Mus musculus [19] = assay: Analgesic activity in po dosed ICR mouse assessed as pain threshold variation administered as single dose measured after 30 to 180 mins by tail flick test; assay type: functional, organism-based
Mus musculus [20] = assay: Analgesic activity in ICR mouse assessed as pain threshold variation at 6.25 umol/kg, po administered as single dose measured after 180 mins by tail flick test relative to control; assay type: functional
Mus musculus [21] = assay: Analgesic activity in ICR mouse assessed as pain threshold variation at 12.5 umol/kg, po administered as single dose measured after 180 mins by tail flick test relative to control; assay type: functional
Mus musculus [22] = assay: Analgesic activity in ICR mouse assessed as pain threshold variation at 6.25 umol/kg, po administered as single dose measured after 90 mins by tail flick test relative to control; assay type: functional
Mus musculus [23] = assay: Analgesic activity in ICR mouse assessed as pain threshold variation at 12.5 umol/kg, po administered as single dose measured after 120 mins by tail flick test relative to control; assay type: functional
Mus musculus [24] = assay: Analgesic activity in ICR mouse assessed as pain threshold variation at 25 umol/kg, po administered as single dose measured after 60 mins by tail flick test relative to control; assay type: functional
Mus musculus [25] = assay: Analgesic activity in ICR mouse assessed as pain threshold variation at 25 umol/kg, po administered as single dose measured after 90 mins by tail flick test relative to control; assay type: functional

SMILES	Activity (Mus musculus [7])	Activity (Mus musculus [8])	Activity (Mus musculus [9])	Activity (Mus musculus [10])	Activity (Mus musculus [11])	Activity (Mus musculus [12])	Activity (Mus musculus [13])	Activity (Mus musculus [14])	Activity (Mus musculus [15])	Activity (Mus musculus [16])	Activity (Mus musculus [17])	Activity (Mus musculus [18])	Activity (Mus musculus [19])	Activity (Mus musculus [20])	Activity (Mus musculus [21])	Activity (Mus musculus [22])	Activity (Mus musculus [23])	Activity (Mus musculus [24])	Activity (Mus musculus [25])	other results
CN1CC[C@]23c4c5ccc(O)c4O[C@H]2[C@@H](O)C=C[C@H]3[C@H]1C5 [MORPHINE]																				Activity (Mus musculus [1]): 122.7%; Activity (Mus musculus [2]): 64.9%; Activity (Mus musculus [3]): 32.9%; Activity (Mus musculus [4]): 177.6%; Activity (Mus musculus [5]): 147%; Activity (Mus musculus [6]): 36.7%
CC(C)[C@H](NC(=O)CN(c1nc(Cl)nc2[nH]cnc12)C1CC1)C(=O)OCc1ccccc1	15.95%	12.93%	9.26%	13.94%	3.07%	33.43%	27.33%	17.91%	5.43%	7.69%	26.47%	23.59%	Dose-dependent effect	3.22%	4.58%	11.83%	14.96%	55.49%	51.32%	
NCCCC[C@H](NC(=O)CN(c1nc(Cl)nc2[nH]cnc12)C1CC1)C(=O)O	16.33%	6.07%	7.05%	16.6%	2.82%	31.18%	16.37%	11.64%	7.39%	8.04%	31.34%	22.04%	Dose-dependent effect	2.61%	2.99%	14.48%	9.79%	53.76%	28.84%	
O=C(CN(c1nc(Cl)nc2[nH]cnc12)C1CC1)NCC(=O)OCc1ccccc1	11.25%	8.31%	8.04%	13.19%	3.47%	18.65%	21.69%	17.99%	6.2%	5.73%	23.74%	19%	Dose-dependent effect	2.64%	5.45%	9.93%	14.62%	41.91%	27.18%	
